The Biogen ADME set (Fang et al. 2023)
≈ marks a conversion by molar mass, not a printed value.

Conditions: for aqueous solubility: pH 6.8

SMILES | MDR1-MDCK efflux ratio | intrinsic clearance, human liver microsomes | intrinsic clearance, rat liver microsomes | aqueous solubility | fraction unbound, human plasma | fraction unbound, rat plasma
CS(=O)(=O)CCNC(=O)N1CC2(CCCC2)c2ccccc21 | 3.67 | 9.64 mL/min/kg | 192 mL/min/kg | 47.4 µg/mL (≈ 147 µM) |  | 
O=C(CC1CCCC1)NCc1nnc2n1CCC2 | 51.7 | ≤ 4.74 mL/min/kg | ≤ 10.7 mL/min/kg | 31.5 µg/mL (≈ 127 µM) |  | 
Cc1nc2cc(-c3nccn3C)nn2c(NCCCN(C)C)c1C | 67.6 | ≤ 4.74 mL/min/kg | 601 mL/min/kg |  |  | 
O=C(NCCN1CCc2ccccc2C1=O)c1ccon1 | 1.18 | ≤ 4.74 mL/min/kg | 56.3 mL/min/kg |  |  | 
O=C(CCc1ccc(Cl)cc1)N1CCCC(c2n[nH]cc2-c2cccc(F)c2)C1 (centres undefined) | 5.67 | 930 mL/min/kg | 3260 mL/min/kg | 3.9 µg/mL (≈ 9.47 µM) |  | 
CC(C)C(=O)Nc1ccc2cnn(C(C)C)c2c1 | 1.42 | 14 mL/min/kg | 55.8 mL/min/kg | 23 µg/mL (≈ 93.7 µM) |  | 
CCCNC(=O)C1(NCc2cncnc2)CCCCC1 | 7.46 | 43.2 mL/min/kg | 127 mL/min/kg |  |  | 
COc1ccc2nc3c(cc2c1)CNCCO3 | 0.504 | 18.1 mL/min/kg | 82.4 mL/min/kg |  |  | 
Nc1c(F)ccc2cnc(-n3ccc4ccncc43)cc12 |  | 368 mL/min/kg | 2360 mL/min/kg |  | 0.0517 | 0.0428
Cc1cccc(C)c1NCc1noc(C2CC2)n1 |  | 203 mL/min/kg | 1540 mL/min/kg |  |  | 
O=C(CCn1cc(Br)cn1)Nc1nc2ccccc2n1CCN1CCOCC1 |  |  |  | 42.3 µg/mL (≈ 94.6 µM) |  | 
O=c1n(Cc2ccncc2)nc2n1-c1cc(Cl)ccc1C1=NCCN12 |  | 20 mL/min/kg | 143 mL/min/kg |  |  | 
CCN(CC(N)=O)CC(=O)N1c2ccccc2CCc2ccccc21 | 28.9 | 40.9 mL/min/kg | 674 mL/min/kg |  |  | 
Cc1cc(Nc2nnc(C)s2)cc(C2CN(C(=O)Cc3csc(C)n3)CCO2)n1 (centres undefined) | 35.5 | 18.7 mL/min/kg | 103 mL/min/kg |  |  | 
Cc1ccc(Cl)c(OC[C@@]2(O)CN(C3CCCC3)CC[C@@H]2O)c1 | 1.03 | 325 mL/min/kg | 2250 mL/min/kg |  |  | 
CCNC(=O)N1CCC2(CCc3ccccc3O2)CC1 | 0.737 | 6.22 mL/min/kg | 884 mL/min/kg | 66.7 µg/mL (≈ 243 µM) |  | 
CCCC(=O)NCC(=O)Nc1cnc(N2CCN(C)CC2)nc1 | 10.9 | ≤ 4.74 mL/min/kg | ≤ 10.7 mL/min/kg | 51.2 µg/mL (≈ 160 µM) |  | 
CCN1C(=O)C(=O)N(Cc2sc3ccccc3c2Cl)C1=O |  |  |  | 0.3 µg/mL (≈ 0.929 µM) |  | 
O=C(c1cc2ccccc2[nH]1)N1C[C@@H](O)[C@H](N2CCOCC2)C1 | 0.428 | ≤ 4.74 mL/min/kg | 17.6 mL/min/kg | 45.6 µg/mL (≈ 145 µM) |  | 

SMILES | MDR1-MDCK efflux ratio | intrinsic clearance, human liver microsomes | intrinsic clearance, rat liver microsomes | aqueous solubility | fraction unbound, human plasma | fraction unbound, rat plasma
CN(C)Cc1csc(-c2nccn2-c2ccc3c(c2)n(C)c(=O)n3C)c1 | 72.5 | ≤ 4.74 mL/min/kg | 38.2 mL/min/kg | 31.4 µg/mL (≈ 85.6 µM) |  | 
CNC(=O)c1sc2ncccc2c1[C@H]1CC[C@H](CNC(=O)CCc2ccccc2)CC1 | 33.7 | 206 mL/min/kg | 1460 mL/min/kg | 61.7 µg/mL (≈ 142 µM) |  | 
Cc1ccccc1-n1c(CC2CCN(C(=O)C3CC3)CC2)n[nH]c1=O | 117 | ≤ 4.74 mL/min/kg | 26.8 mL/min/kg | 48 µg/mL (≈ 141 µM) |  | 
COCC1(C(=O)N(C)Cc2ccc3ccccc3n2)CCC1 | 1.14 | 59.9 mL/min/kg | 4180 mL/min/kg |  |  | 
Cc1nc(NCC(C)(C)c2ccccc2)n(C)n1 | 1.07 | 10.7 mL/min/kg | 235 mL/min/kg | 36.2 µg/mL (≈ 148 µM) |  | 
CCn1nc(CNC(=O)c2nc(C)c[nH]2)c2ccccc21 | 5.37 | 11.2 mL/min/kg | 236 mL/min/kg |  |  | 
CC(C)(C)CCCNC(=O)N1CCN(Cc2ccon2)CC1 | 1.5 | 17.1 mL/min/kg | 623 mL/min/kg |  |  | 
CC(Oc1ccc(Cl)cc1)C(=O)N1CCC(n2c(=O)[nH]c3ccccc32)CC1 (centres undefined) |  | 36.2 mL/min/kg | 525 mL/min/kg | 28.9 µg/mL (≈ 72.4 µM) |  | 
CN1CCC(CNc2nccc3cccnc23)CC1 | 0.854 | ≤ 4.74 mL/min/kg | 1520 mL/min/kg |  |  | 
O=c1c2c(nc3ccccn13)CCN(S(=O)(=O)C1CCCCC1)C2 | 1.18 | 19.9 mL/min/kg | 1100 mL/min/kg | 33.2 µg/mL (≈ 95.7 µM) |  | 
CN1CCN(S(=O)(=O)c2ccc(-c3cnc(N)c(C(=O)Nc4cccnc4)n3)cc2)CC1 | 72.4 | 124 mL/min/kg | 672 mL/min/kg |  | 0.12 | 0.0823
Clc1ccc2c(c1)CCc1cccnc1C2=C1CCNCC1 | 47.8 | ≤ 4.74 mL/min/kg | 108 mL/min/kg |  |  | 
Cc1cccc(NCCc2cc(F)cc3c2OCOC3)n1 | 0.374 | 397 mL/min/kg | 5180 mL/min/kg |  |  | 
Cc1ccc(NC(=O)OCC(F)(F)F)cn1 | 0.584 | ≤ 4.74 mL/min/kg | 35.2 mL/min/kg |  |  | 
O=C(c1ccncc1)N1CCC(c2cnccn2)CC1 | 2.71 | ≤ 4.74 mL/min/kg | ≤ 10.7 mL/min/kg | 61.2 µg/mL (≈ 228 µM) |  | 
CCc1sc(N)nc1-c1ccc(OC)cc1 | 0.563 | 185 mL/min/kg | 491 mL/min/kg |  |  | 
CCNC(=O)c1cc(C2CC2)nc2c1c(C)nn2-c1ccccn1 | 3.78 | 25.8 mL/min/kg | 70.7 mL/min/kg | 54.1 µg/mL (≈ 168 µM) |  | 
COc1cc(Nc2c(C#N)cnc3cc(OC)c(OC)cc23)c(Cl)cc1Cl |  | 161 mL/min/kg | 443 mL/min/kg |  |  | 
Cn1ccnc1COc1ccc(CO)cc1 |  |  |  | 57.4 µg/mL (≈ 263 µM) |  | 

SMILES | MDR1-MDCK efflux ratio | intrinsic clearance, human liver microsomes | intrinsic clearance, rat liver microsomes | aqueous solubility | fraction unbound, human plasma | fraction unbound, rat plasma
Cc1cccc(/C=N/Nc2cc(N3CCOCC3)nc(OCCc3ccccn3)n2)c1 | 0.917 | 130 mL/min/kg |  |  | 0.00283 | 0.0053
CS(=O)(=O)N(CC(=O)Nc1ccccc1C(=O)NCc1ccco1)c1ccc(F)cc1 | 9.61 | 131 mL/min/kg | 1110 mL/min/kg | 35.1 µg/mL (≈ 78.9 µM) |  | 
NC1(c2ccc(-c3nc4ccn5c(=O)[nH]nc5c4cc3-c3ccccc3)cc2)CCC1 |  | 14.7 mL/min/kg | 17.1 mL/min/kg |  |  | 
Cc1ccc(OCC(=O)Nc2cc(C)on2)nc1 |  | ≤ 4.74 mL/min/kg | ≤ 10.7 mL/min/kg |  |  | 
O=C(O)c1cnn(-c2nc3cc(Cl)c(OC(F)(F)F)cc3[nH]2)c1 | 1.05 | ≤ 4.74 mL/min/kg | ≤ 10.7 mL/min/kg |  |  | 
COCc1ccc(SCC(=O)NC2CCCC2)cc1 | 0.714 | 33.3 mL/min/kg | 2550 mL/min/kg |  |  | 
COc1ccc2c(c1)CN(C(=O)c1cc(C3CC3)[nH]n1)CC2 | 1.06 | 63.1 mL/min/kg | 2860 mL/min/kg | 13.6 µg/mL (≈ 45.9 µM) |  | 
O=c1c(N2CCCC2)c(Cl)cnn1-c1ccccc1 |  |  |  | 17.1 µg/mL (≈ 62.1 µM) |  | 
Cn1ccnc1CCNC(=O)c1cccc2cccnc12 | 7.87 | 11.5 mL/min/kg | 150 mL/min/kg | 41.5 µg/mL (≈ 148 µM) |  | 
Cc1nc(O)cc(C2CCN(c3cnccn3)CC2)n1 | 42 | ≤ 4.74 mL/min/kg | 20.1 mL/min/kg | 50.7 µg/mL (≈ 187 µM) |  | 
O=C(CN1CCCC(c2ccc3cn[nH]c3n2)C1)N1CCCC1 (centres undefined) | 30.2 | 9.13 mL/min/kg | 337 mL/min/kg | 38 µg/mL (≈ 121 µM) |  | 
COCC(=O)N1CCC(Cc2ccccc2-c2cccc(F)c2)(C(=O)NC(C)C)CC1 | 33.1 | 149 mL/min/kg | 572 mL/min/kg |  | 0.0395 | 0.119
CCC(C)(C)c1ccc(Oc2ccc(NC3=NN(c4ccccc4)C(=O)C3)cc2)cc1 |  | 7.61 mL/min/kg | 17.1 mL/min/kg |  |  | 
Cc1noc(C2CCN(C(=O)C3(c4cccc(F)c4)CCC3)CC2)n1 | 0.861 | 54.1 mL/min/kg | 2450 mL/min/kg | 76.3 µg/mL (≈ 222 µM) |  | 
Cc1nnc(-c2ccc3occ(-c4ccc(S(C)=O)cc4)c3c2)o1 (centres undefined) | 1.98 | ≤ 4.74 mL/min/kg | 61.5 mL/min/kg | 44.8 µg/mL (≈ 132 µM) | 0.0156 | 0.12
Cc1nc(-c2ccccc2)c(C(=O)Nc2ccc(Cl)c(Cl)c2)s1 | 0.73 | 89.2 mL/min/kg | 2390 mL/min/kg |  |  | 
O=C(CSC1CCCC1)N1CCC(n2ccnn2)CC1 | 1.3 | 13.2 mL/min/kg | 138 mL/min/kg | 39.1 µg/mL (≈ 133 µM) |  | 
Cn1nc(C2CCNCC2)c2cccnc21 | 6.86 | ≤ 4.74 mL/min/kg | 36.3 mL/min/kg | 53.4 µg/mL (≈ 247 µM) |  | 
Cc1nc(N2CCc3c(ncn3C)C2)c2c(C)c(C)sc2n1 | 1.94 | 94.2 mL/min/kg | 655 mL/min/kg | 47.5 µg/mL (≈ 152 µM) |  | 
